Consider seven molecules from ChEMBL document CHEMBL6109054, “Development of novel GI-centric prostaglandin E2 receptor type 4 (EP4) agonist prodrugs as treatment for ulcerative colitis and other intestinal inflammatory diseases” (Bioorg Med Chem Lett, 2025).

Data set [1] in a line: Prodrug conversion in human plasma assessed as 7(R)-(2-((R,E)-4,4-difluoro-3-hydroxy-4-phenyl)but-1-en-1-yl)-5-oxopyrrolidin-1-yl)heptanoic acid release by measuring half-life. The format is ADME, cell-free.
Data set [2] in a line: Prodrug conversion in mouse gut assessed as 7(R)-(2-((R,E)-4,4-difluoro-3-hydroxy-4-phenyl)but-1-en-1-yl)-5-oxopyrrolidin-1-yl)heptanoic acid formation by measuring half-life at 100 uM. The format is ADME, tissue-based.
Data set [3] in a line: Elimination half-life in rat. The class given is ADME. The note with it: in vivo, read-out: beta t1/2.
Data set [4] has as its system Mus musculus. Put plainly: Anti-inflammatory activity in rectal dosed DSS-induced mouse model assessed as reduction in inflammatory cell infiltration treated as prodrug for 8 days. Particulars: route rec, time 8.0 day. The class given is functional, organism-based.
Data set [5] is described as follows: Prodrug conversion in blood of DSS-induced colitis mouse model assessed as 7(R)-(2-((R,E)-4,4-difluoro-3-hydroxy-4-phenyl)but-1-en-1-yl)-5-oxopyrrolidin-1-yl)heptanoic acid formation administered as rectal dose and measured after 4 days by LC/MS/MS analysis. The class given is ADME, tissue-based. The note with it: other, 96 h, route rec, time 4 day.
Data set [6] can be described thus: Stability of compound in PBS buffer at pH 7.2 at 200 ug/mL measured over 170 hrs. The class given is physicochemical. The note with it: pH 7.2, 170 h, at 200 µg/mL.
The nature of data set [7]: Stability of compound in PBS buffer at pH 9 at 200 ug/mL measured over 170 hrs. The format is physicochemical. The note with it: pH 9, 170 h, at 200 µg/mL.
Data set [8] is described as follows: Prodrug release in PBS buffer at pH 2 assessed as release of 7(R)-(2-((R,E)-4,4-difluoro-3-hydroxy-4-phenyl)but-1-en-1-yl)-5-oxopyrrolidin-1-yl)heptanoic acid by measuring half-life. The class given is ADME.
Data set [9] is described as follows: Prodrug conversion in mouse serum assessed as 7(R)-(2-((R,E)-4,4-difluoro-3-hydroxy-4-phenyl)but-1-en-1-yl)-5-oxopyrrolidin-1-yl)heptanoic acid release by measuring half-life. The class given is ADME, cell-free.
Data set [10] is described as follows: Prodrug conversion in mouse colon assessed as 7(R)-(2-((R,E)-4,4-difluoro-3-hydroxy-4-phenyl)but-1-en-1-yl)-5-oxopyrrolidin-1-yl)heptanoic acid formation by measuring half-life. The format is ADME, tissue-based. Particulars: in vivo.
A short description of data set [11]: Prodrug conversion in mouse ileum assessed as 7(R)-(2-((R,E)-4,4-difluoro-3-hydroxy-4-phenyl)but-1-en-1-yl)-5-oxopyrrolidin-1-yl)heptanoic acid formation by measuring half-life. The class given is ADME, tissue-based. The note with it: in vivo.
Data set [12] in a line: Prodrug conversion in mouse blood assessed as 7(R)-(2-((R,E)-4,4-difluoro-3-hydroxy-4-phenyl)but-1-en-1-yl)-5-oxopyrrolidin-1-yl)heptanoic acid formation administered orally with 1 mg/kg equivalent dose of active drug and measured after 0.5 hrs by LC/MS/MS analysis. The format is ADME, organism-based. The note with it: in vivo, po.
Data set [13] can be described thus: Prodrug conversion in mouse blood assessed as 7(R)-(2-((R,E)-4,4-difluoro-3-hydroxy-4-phenyl)but-1-en-1-yl)-5-oxopyrrolidin-1-yl)heptanoic acid formation administered orally with 1 mg/kg equivalent dose of active drug and measured for 1 to 4 hrs by LC/MS/MS analysis. Particulars: in vivo, po, time 1-4 hrs. The class given is ADME, organism-based.
Data set [14] can be described thus: Prodrug conversion in mouse blood assessed as concentration of 7(R)-(2-((R,E)-4,4-difluoro-3-hydroxy-4-phenyl)but-1-en-1-yl)-5-oxopyrrolidin-1-yl)heptanoic acid administered as rectal dose and measured after 1 hr. The class given is ADME, tissue-based. Particulars: other, route rec.
Data set [15] can be described thus: Toxicity in rectal dosed mouse assessed as body weight loss administered for 8 days. The format is organism-based. The note with it: in vivo, other, 192 h, route rec, time 8 day.
Data set [16] has as its system Mus musculus. As to the kind of experiment: Anti-inflammatory activity in rectal dosed DSS-induced colitis mouse model assessed as change in disease activity index (DAI) treated as prodrug for 8 days. Particulars: route rec, time 8.0 day. The class given is functional, organism-based.
The subject of data set [17] is Mus musculus. As to the kind of experiment: Anti-inflammatory activity in rectal dosed DSS-induced colitis mouse model assessed as increase in colon length treated as prodrug for 8 days. The class given is functional, organism-based. Particulars: route rec, time 8.0 day.
In data set [18] the test system is Mus musculus. As to the kind of experiment: Anti-inflammatory activity in rectal dosed DSS-induced mouse model assessed as reduction in epithelial cell damage treated as prodrug for 8 days. The class given is functional, organism-based. The note with it: route rec, time 8.0 day.
The nature of data set [19]: Prodrug conversion in blood of DSS-induced colitis mouse model assessed as 7(R)-(2-((R,E)-4,4-difluoro-3-hydroxy-4-phenyl)but-1-en-1-yl)-5-oxopyrrolidin-1-yl)heptanoic acid formation administered as rectal dose and measured after 7 days by LC/MS/MS analysis. The class given is ADME, tissue-based. Particulars: other, 168 h, route rec, time 7 day.
The nature of data set [20]: Drug uptake in mouse blood administered as rectal dose and measured after 1 hrs. The format is ADME, tissue-based. The note with it: route rec, read-out: Ct.

Each structure is given as a SMILES string. Active and inactive are the calls of the source. The rule behind the calls is not given here.

`CCCC(O[C@H](/C=C/[C@H]1CCC(=O)N1CCCCCCC(=O)OCC)C(F)(F)c1ccccc1)OP(=O)(O)O` (stereo partly specified): the figures for the t1/2 in data set [1] and in [2] were 12.7 h and less than 0.083 h, respectively.
Consider `CCOC(=O)CCCCCCN1C(=O)CC[C@@H]1/C=C/[C@@H](OC(OP(=O)(O)O)c1ccccc1)C(F)(F)c1ccccc1` (stereo partly specified), for which the t1/2 in [1] came to 45 h; in data set [2], 0.667 h.
For the molecule `O=C1CC[C@H](/C=C/[C@@H](O)C(F)(F)c2ccccc2)N1CCCCCCc1nnn[nH]1`, in data set [3], the half-life is greater than 24 h.
Regarding `CCOC(=O)CCCCCCN1C(=O)CC[C@@H]1/C=C/[C@@H](OC(C)OP(=O)(O)O)C(F)(F)c1ccccc1` (stereo partly specified), the results for the t1/2 in [1] and in data set [2] were 10.4 h and less than 0.083 h, respectively.
`O=C(O)CCCCCCN1C(=O)CC[C@@H]1/C=C/[C@@H](OCOP(=O)(O)O)C(F)(F)c1ccccc1`: the result in data set [4], in data set [17] and in [18] was Active. Also, the Drug metabolism in data set [5] is 1.5 ng/mL; in data set [12], “metabolite_detected”; in data set [13], “metabolite_detected”; in [14], 5.4 ng/mL; in data set [19], 1.5 ng/mL. For the same molecule, the Stability entry in data set [6] and in [7] was “Stable” each time. For the same molecule, the t1/2 in data set [8] was ~ 300 hr; in [1] it was 1.5 h; in data set [9], 3.3 h; in data set [2], less than 0.083 h; in data set [10], 0.333 h; in [11], 9 min. In addition, the Activity result in data set [15] is “Non-toxic”; in [16], “Not active; Little Or No Change Observed”.
Take `O=C(O)CCCCCCN1C(=O)CC[C@@H]1/C=C/[C@@H](O)C(F)(F)c1ccccc1`: in data set [20], the concentration at 1 h came to 35.8 ng/mL. The Activity result in data set [15] is given as “Non-toxic”. Also, the half-life in data set [3] is less than 1 h.
Take `O=C(O)CCCCCCN1C(=O)CC[C@@H]1/C=C/[C@@H](OC(OP(=O)(O)O)c1ccccc1)C(F)(F)c1ccccc1` (stereo partly specified): the results for the Drug metabolism result in data set [12], in [13] and in data set [14] were “metabolite_detected”, “metabolite_detected” and 2.6 ng/mL, respectively.
